Source: US7638509B2, “Diene compounds and formulations” (priority 2003, dated 2009)

Target: T1, mutant AR (Homo sapiens, UniProt P10275, T878A)
T1 construct: LNCaP without transfection; endogenous in cells; host or cells: LNCaP
T1 sequence (P10275 1-920 T878A): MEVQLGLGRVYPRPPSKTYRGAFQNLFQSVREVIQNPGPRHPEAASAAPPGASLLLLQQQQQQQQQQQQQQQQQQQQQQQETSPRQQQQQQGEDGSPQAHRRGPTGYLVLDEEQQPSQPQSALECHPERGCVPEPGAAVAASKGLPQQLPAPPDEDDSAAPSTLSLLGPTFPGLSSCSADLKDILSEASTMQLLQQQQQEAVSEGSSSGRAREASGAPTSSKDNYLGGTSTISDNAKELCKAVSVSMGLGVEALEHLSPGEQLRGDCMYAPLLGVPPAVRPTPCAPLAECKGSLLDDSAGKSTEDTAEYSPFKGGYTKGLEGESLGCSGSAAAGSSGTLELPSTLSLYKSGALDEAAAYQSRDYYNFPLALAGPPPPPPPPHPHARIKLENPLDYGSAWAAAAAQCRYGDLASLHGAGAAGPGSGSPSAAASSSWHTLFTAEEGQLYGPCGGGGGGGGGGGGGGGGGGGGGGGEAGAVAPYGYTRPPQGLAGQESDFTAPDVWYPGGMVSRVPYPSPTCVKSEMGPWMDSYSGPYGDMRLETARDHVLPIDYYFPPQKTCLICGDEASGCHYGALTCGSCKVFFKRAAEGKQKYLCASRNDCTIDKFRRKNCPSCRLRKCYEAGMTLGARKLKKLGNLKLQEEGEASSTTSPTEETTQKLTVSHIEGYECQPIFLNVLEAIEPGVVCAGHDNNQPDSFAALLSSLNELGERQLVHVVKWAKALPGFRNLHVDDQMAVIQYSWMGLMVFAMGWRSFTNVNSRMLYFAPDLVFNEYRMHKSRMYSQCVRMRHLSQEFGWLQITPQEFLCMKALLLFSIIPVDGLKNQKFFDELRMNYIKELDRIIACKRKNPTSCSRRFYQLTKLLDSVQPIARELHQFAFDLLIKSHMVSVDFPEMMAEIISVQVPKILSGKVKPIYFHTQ
Assay: AR transcription, MMTV-Luc reporter in LNCaP cells
Assay type: cell-based
Details: MMTV-Luc
Protocol: Cell Culture, Transfection, and Reporter Gene Assay. The human prostate cancer cell lines, LNCaP, PC-3, and DU145, and non-prostate cancer cell line COS-1 were maintained in RPMI or Dulbecco's modified Eagle's medium (DMEM) (Life Technologies) supplemented with 10% fetal bovine serum (FBS). […] Briefly, cells seeded to reach a density of 50-60% confluence in 12 well tissue culture plates were transfected with 1.5 μg of DNA according to “SuperFect transfection” instructions (Qiagen). After 2-3 h incubation, cells were treated with medium supplemented with charcoal-stripped FBS containing either ethanol or ligands for 24 h. The cells were then harvested and whole cell extracts were used for Luc assay. The Luc activity was determined using a Dual-Luciferase Reporter Assay System (Promega) and luminometer.
The pSG5-AR was co-transfected in COS-1 cells. […] Values were obtained from the mean±SD of at least three determinations. DU145 cells were transfected with the pSG5-AR and MMTV-Luc in the presence or absence of pSG5-ARA70. […] Values were obtained for the mean±SD of at least three determinations.

CC(=O)O[C@H]1C=C[C@@]2(C)C(=CC[C@@H]3[C@@H]2CC[C@@]2(C)[C@H]3CCC23OCCO3)C1 [ADEK, 3β-acetoxy-17,17-ethylenedioxyandrosta-1,5-diene]
DHT-induced mutant AR transcription suppressed to (DHT = 100%) (1 nM DHT, dose-dependent): 17% | agonist / androgenic activity on mutant AR transcription (in words) (HF at 10 μM): lower than that of casodex
